# Assay results: publication doi:10.1101/2023.07.03.547578v2 (bioRxiv, 2023)
# Where two headings read alike, the source gives them in different places.
# How the values were obtained:
# Stability in plasma = assay type: in vitro ADME; conditions: abstract; method not given
# Casq2-/- mice [1] = test: Catecholamine-induced arrhythmia challenge; assay type: in vivo, mouse; conditions: 3 and 30 mg/kg i.p., ECG
# [2] = In vivo pharmacokinetic study; parameters: species or system mouse; conditions: 3 mg/kg i.p.
# [3] = ref Smith et al., 2021; cited from earlier work
# RyR2 [4] = target: T1, RyR2 (Sus scrofa, UniProt A0A5G2R1W3); test: [3H]ryanodine binding assay in cardiac SR vesicles; parameters: species or system porcine
# T1 sequence (A0A5G2R1W3 20-4900): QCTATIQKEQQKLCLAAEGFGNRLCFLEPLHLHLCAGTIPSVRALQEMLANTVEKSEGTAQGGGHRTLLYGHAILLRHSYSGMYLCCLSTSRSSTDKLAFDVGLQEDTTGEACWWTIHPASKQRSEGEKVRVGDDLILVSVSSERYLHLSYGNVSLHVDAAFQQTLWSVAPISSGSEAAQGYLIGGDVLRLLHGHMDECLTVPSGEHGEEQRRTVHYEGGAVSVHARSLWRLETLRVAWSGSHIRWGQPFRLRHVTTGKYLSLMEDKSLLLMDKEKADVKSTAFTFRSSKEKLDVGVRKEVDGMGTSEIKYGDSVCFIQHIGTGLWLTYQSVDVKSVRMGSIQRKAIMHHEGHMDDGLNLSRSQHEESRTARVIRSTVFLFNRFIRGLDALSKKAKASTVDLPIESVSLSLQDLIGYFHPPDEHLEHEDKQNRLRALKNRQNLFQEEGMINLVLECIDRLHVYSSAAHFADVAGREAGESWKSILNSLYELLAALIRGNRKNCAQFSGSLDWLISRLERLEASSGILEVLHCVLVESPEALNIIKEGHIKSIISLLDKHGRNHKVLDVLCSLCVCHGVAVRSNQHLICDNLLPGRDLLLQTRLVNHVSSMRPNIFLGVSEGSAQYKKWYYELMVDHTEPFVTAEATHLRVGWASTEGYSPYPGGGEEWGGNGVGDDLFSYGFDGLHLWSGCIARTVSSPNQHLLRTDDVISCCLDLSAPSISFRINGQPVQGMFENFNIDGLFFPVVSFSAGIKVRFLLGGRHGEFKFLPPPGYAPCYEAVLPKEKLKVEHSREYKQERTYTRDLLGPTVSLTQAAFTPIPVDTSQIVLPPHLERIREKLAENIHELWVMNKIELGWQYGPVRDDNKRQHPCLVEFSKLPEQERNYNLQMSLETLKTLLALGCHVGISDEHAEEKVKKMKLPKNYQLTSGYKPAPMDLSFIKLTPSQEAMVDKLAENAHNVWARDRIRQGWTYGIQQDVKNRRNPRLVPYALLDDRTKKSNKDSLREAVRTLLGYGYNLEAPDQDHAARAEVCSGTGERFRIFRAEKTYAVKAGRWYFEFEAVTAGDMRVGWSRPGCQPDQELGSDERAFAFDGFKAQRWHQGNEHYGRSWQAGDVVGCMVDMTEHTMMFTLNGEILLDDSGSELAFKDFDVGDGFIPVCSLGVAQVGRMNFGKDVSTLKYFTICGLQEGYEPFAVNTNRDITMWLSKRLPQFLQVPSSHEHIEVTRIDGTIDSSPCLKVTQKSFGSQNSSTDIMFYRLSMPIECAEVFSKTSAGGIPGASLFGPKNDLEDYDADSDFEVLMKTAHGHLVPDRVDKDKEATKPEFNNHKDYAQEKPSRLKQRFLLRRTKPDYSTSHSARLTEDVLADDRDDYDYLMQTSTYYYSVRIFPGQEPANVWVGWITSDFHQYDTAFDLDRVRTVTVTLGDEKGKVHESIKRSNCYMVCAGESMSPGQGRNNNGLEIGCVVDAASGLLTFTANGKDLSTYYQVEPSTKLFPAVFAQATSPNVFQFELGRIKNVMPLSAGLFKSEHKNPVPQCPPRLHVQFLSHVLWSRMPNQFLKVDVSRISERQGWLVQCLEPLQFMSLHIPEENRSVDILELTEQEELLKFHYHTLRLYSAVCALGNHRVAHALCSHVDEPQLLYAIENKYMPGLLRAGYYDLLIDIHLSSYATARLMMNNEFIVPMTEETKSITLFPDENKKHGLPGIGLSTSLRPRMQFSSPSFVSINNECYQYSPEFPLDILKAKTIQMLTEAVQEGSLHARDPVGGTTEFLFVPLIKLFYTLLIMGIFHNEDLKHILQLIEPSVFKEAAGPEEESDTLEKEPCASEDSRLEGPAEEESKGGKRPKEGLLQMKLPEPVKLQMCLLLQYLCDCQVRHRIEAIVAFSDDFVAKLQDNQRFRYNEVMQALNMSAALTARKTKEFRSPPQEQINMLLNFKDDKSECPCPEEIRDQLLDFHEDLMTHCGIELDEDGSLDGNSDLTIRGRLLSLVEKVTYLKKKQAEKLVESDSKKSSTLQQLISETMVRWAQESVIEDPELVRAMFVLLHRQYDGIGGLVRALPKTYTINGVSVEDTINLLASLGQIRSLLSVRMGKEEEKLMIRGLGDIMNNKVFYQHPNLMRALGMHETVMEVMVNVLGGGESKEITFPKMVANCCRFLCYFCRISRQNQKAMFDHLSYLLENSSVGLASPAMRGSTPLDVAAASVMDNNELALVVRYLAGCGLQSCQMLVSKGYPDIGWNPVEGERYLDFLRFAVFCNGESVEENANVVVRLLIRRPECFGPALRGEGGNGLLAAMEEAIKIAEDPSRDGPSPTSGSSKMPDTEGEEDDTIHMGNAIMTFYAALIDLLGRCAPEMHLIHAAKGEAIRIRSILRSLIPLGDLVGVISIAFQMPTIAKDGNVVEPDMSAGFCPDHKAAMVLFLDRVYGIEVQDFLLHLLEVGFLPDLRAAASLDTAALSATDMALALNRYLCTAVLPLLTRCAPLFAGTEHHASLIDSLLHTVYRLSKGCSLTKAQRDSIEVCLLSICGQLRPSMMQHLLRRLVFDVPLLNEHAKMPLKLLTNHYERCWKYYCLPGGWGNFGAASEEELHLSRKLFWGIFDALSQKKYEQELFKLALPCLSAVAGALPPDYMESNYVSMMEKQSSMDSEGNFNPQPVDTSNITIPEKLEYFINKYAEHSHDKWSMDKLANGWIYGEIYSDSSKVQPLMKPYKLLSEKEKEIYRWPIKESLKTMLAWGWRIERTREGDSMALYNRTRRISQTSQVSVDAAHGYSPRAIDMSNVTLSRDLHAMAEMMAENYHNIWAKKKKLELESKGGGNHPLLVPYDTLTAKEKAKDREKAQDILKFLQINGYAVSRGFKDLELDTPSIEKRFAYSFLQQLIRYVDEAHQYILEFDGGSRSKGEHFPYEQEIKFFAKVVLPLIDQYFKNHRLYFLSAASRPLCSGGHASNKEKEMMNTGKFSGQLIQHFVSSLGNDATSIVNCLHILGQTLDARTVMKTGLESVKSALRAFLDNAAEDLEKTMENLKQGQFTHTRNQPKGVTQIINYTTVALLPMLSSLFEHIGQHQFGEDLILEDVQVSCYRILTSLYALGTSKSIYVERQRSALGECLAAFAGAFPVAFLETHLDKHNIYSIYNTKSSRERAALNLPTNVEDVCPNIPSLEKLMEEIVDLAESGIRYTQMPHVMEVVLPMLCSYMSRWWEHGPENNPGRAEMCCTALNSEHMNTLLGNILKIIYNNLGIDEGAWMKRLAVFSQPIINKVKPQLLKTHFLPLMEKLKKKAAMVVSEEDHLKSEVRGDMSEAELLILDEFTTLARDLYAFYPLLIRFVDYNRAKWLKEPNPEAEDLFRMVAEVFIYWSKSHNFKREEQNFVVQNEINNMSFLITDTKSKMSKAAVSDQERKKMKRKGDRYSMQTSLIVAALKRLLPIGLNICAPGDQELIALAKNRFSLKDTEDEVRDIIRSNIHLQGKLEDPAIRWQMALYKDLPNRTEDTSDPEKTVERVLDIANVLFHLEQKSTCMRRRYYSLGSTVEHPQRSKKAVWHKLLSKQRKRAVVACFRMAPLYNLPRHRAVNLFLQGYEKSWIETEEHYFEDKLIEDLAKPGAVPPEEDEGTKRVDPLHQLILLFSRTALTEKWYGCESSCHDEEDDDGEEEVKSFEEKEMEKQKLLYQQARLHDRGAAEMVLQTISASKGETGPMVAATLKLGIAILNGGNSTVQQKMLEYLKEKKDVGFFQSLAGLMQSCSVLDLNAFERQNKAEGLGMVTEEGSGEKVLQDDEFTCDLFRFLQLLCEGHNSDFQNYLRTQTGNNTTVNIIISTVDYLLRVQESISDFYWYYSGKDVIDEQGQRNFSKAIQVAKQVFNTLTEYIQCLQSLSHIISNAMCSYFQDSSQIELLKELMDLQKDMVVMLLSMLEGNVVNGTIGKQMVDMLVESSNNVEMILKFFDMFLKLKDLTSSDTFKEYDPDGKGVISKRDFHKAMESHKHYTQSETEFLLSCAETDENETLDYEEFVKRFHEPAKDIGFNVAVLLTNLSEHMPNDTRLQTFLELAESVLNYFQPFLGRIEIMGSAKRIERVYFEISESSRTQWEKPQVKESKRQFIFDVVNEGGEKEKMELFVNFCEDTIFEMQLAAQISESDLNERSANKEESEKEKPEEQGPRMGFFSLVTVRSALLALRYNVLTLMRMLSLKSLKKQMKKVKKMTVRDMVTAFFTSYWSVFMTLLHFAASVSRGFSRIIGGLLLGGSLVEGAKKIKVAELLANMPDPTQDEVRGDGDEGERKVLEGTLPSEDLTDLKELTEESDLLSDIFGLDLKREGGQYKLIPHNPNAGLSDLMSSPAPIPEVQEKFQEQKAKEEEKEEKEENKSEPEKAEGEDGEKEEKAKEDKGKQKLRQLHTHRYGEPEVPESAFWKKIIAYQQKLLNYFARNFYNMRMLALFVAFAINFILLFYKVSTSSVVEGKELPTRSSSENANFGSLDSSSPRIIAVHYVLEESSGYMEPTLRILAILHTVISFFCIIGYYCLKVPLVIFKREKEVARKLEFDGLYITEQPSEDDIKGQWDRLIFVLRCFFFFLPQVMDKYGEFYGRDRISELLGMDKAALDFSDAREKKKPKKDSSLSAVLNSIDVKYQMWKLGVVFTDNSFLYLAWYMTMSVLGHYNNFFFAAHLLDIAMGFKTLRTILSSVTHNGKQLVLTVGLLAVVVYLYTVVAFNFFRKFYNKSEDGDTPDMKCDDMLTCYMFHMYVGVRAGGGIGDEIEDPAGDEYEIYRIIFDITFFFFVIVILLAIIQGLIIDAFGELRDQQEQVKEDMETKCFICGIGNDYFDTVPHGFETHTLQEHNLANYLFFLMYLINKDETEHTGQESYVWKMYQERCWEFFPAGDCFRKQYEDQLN
# [5] = tested on: RyR2-mediated spontaneous Ca2+ release in Casq2-/- cardiomyocytes; conditions: read-out: IC50, intact cardiomyocyte assay; ref Batiste et al., 2019; cited from earlier work
# RyR2 [6] = target: T1, RyR2; conditions: read-out: IC50, ryanodine binding assay; ref Batiste et al., 2019; cited from earlier work
# Casq2-/- mice [7] = conditions: ref Blackwell et al., 2023, cited from earlier work
# [8] = mice; ref Blackwell et al., 2023; cited from earlier work
# insect RyR = conditions: ref Ohshiro et al., 2012; cited from earlier work
# RyR2 [9] = conditions: ref Ohshiro et al., 2012; cited from earlier work
compound,measurement,setting,value
"CCCCC[C@@H]1OC(=O)[C@@H](C)N(C)C(=O)[C@H](CCCCC)OC(=O)[C@@H](C)N(C)C(=O)[C@H](CCCCC)OC(=O)[C@@H](C)N(C)C1=O (single isomer, unassigned) [ent-B1, ent-verticilide B1]",stability in plasma,Stability in plasma,stable
same,QRS width,Casq2-/- mice [1],No changes
same,heart rate,Casq2-/- mice [1],No changes
same,clinical observation during the PK study,"[2]; CD1 mice, up to 480 min",no abnormality
same,time of peak plasma concentration,"[2]; mice, plasma",10 min
same,elimination half-life (t1/2),"[2]; mice, plasma, mean",0.757 h
same,lipophilicity relative to ent-1,[3],loss of lipophilicity
same,IC50,RyR2 [4],1930 nM
same,maximal inhibition of [3H]ryanodine binding,RyR2 [4]; incomplete maximal inhibition vs DMSO,approximately 30%
ent-(+)-verticilide [ent-1],IC50,[5],100 nM
same,IC50,RyR2 [6],100 nM
same,VT incidence,"Casq2-/- mice [7]; 30 mg/kg, same arrhythmia induction protocol",~35%
same,antiarrhythmic efficacy in vivo,Casq2-/- mice [7]; single dose study at 3 and 30 mg/kg i.p.,had antiarrhythmic efficacy
same,half-life (t1/2),[8],6.92 h
verticilide B1,activity against insect RyR,insect RyR,not active
same,activity against RyR2,RyR2 [9],not active
